# Structures can show the parent of a compound that is named as a salt.
# Columns and labels:
# [1] = biological target: T1, human CXCR4 (Homo sapiens, UniProt P61073); experiment: Functional FLIPR assay (block of SDF-1 alpha calcium response); type: cell-based; conditions: HEK-293 cells with human CXCR4 and Gqi5 BacMam; antagonism of SDF-1 alpha [Ca2+]i change; read-out: Functional assay (pIC50) (converted)
# T1 construct: expressed in transfected cells; host or cells: HEK-293 cells (stably expressing human macrophage scavenging receptor) transduced with human CXCR4 BacMam and Gqi5 BacMam baculovirus
# T1 sequence (P61073 whole entry): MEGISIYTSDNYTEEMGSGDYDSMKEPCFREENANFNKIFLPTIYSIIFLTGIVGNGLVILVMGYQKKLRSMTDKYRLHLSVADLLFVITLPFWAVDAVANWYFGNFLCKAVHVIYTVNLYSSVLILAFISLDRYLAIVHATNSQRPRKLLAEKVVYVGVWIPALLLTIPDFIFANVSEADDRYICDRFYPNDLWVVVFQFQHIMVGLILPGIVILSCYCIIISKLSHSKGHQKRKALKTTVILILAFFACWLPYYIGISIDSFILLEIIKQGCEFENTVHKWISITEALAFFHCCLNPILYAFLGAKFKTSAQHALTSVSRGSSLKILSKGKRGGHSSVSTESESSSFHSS
# Description: Human embryonic kidney (HEK-293) cells were maintained and harvested as described above. Cells were plated in 96-well, black clear bottom, poly-lysine coated plates at a concentration of 40,000 cells per well in a final volume of 100 ul containing human CXCR4BacMam (MOI=25) and Gqi5 BacMam (MOI=12.5). The cells were incubated at 37° C., 5% CO2, 95% humidity for 24 h to allow for protein expression.
# After the required incubation time the cells were washed once with 50 ul of fresh serum-free DMEM/F12 media containing probenicid. 50 ul of dye solution was then added to the cells (Calcium Plus Assay Kit Dye; Molecular Devices) was dissolved in 200 ml of the above probenicid/BSA containing media and incubated for 1 h. Cell plates were transferred to a Fluorometric Imaging Plate Reader (FLIPR). Upon addition the effect of the compounds on the change in [Ca^2+]i was examined to determine if the compounds were agonists or antagonists (ability to block SDF-1 alpha activity) at the CXCR4 receptor. IC50 values are determined and pKb values are calculated using the Leff and Dougall equation: KB=IC50/((2+([agonist]/EC50̂b) ̂1/b−1) Where IC50 is that defined by the antagonist concentration-response curve [agonist] is the EC80 concentration of agonist used EC50 is that defined by the agonist concentration-response curve b is the slope of the agonist concentration-response curve.
# [2] = test system: HIV-1 gp160 (HXB2 strain) HEK-293 cells fusing with HOS (hCXCR4/hCCR5/hCD4/pHIV-LTR-luciferase) cells; experiment: Cell/cell fusion assay (luciferase); type: cell-based; conditions: Homo sapiens, HEK (tat/rev/gp160 HXB2) + HOS cells, 24 h, read-out: Fusion assay (pIC50) (converted)
# Description: The complete coding sequences of HIV-1 tat (GenBank Accession No. X07861) and rev (GenBank Accession No. M34378) were cloned into pcDNA3.1 expression vectors containing G418 and hygromycin resistance genes, respectively. The complete coding sequence of the HIV-1 (HXB2 strain) gp160 envelope gene (nucleotide bases 6225-8795 of GenBank Accession No. K03455) was cloned into plasmid pCRII-TOPO. The three HIV genes were additionally inserted into the baculovirus shuttle vector, pFastBacMam1, under the transcriptional control of the CMV promoter. A construction of the pHIV-I LTR containing mutated NFkB sequences linked to the luciferase reporter gene was prepared by digesting pcDNA3.1, containing the G418 resistance gene, with Nru I and Bam HI to remove the CMV promoter. LTR-luc was then cloned into the Nru I/Bam HI sites of the plasmid vector. Plasmid preparations were performed after the plasmids were amplified in Escherichia coli strain DH5-alpha. The fidelity of the inserted sequences was confirmed by double-strand nucleotide sequencing using an ABI Prism Model 377 automated sequencer.
# Recombinant BacMam baculoviruses were constructed from pFastBacMam shuttle plasmids by using the bacterial cell-based Bac-to-Bac system. Viruses were propagated in Sf9 (Spodoptera frugiperda) cells cultured in Hink's TNM-FH Insect media supplemented with 10% (v/v) fetal bovine serum and 0.1% (v/v) pluronic F-68 according to established protocols.
# Human osteosarcoma (HOS) cells that naturally express human CXCR4 were transfected with human CCR5, human CD4 and the pHIV-LTR-luciferase plasmid using FuGENE 6 transfection reagent. Single cells were isolated and grown under selection condition in order to generate a stable HOS (hCXCR4/hCCR5/hCD4/pHIV-LTR-luciferase) clonal cell line. The cells were maintained in Dulbeccos modified Eagles media supplemented with 10% fetal calf serum (FCS), G418 (400 ug/ml), puromycin (1 ug/ml), mycophenolic acid (40 ug/ml), xanthine (250 ug/ml) and hypoxanthine (13.5 ug/ml) to maintain a selection pressure for cells expressing the LTR-luciferase, hCCR5 and hCD4, respectively. Human embryonic kidney (HEK-293) cells stably transfected to express the human macrophage scavenging receptor (Class A, type 1; GenBank Accession No. D90187), were maintained in DMEM/F-12 media (1:1) supplemented with 10% FCS and 1.5 ug/ml puromycin. The expression of this receptor by the HEK-293 cells enhances their ability to stick to tissue culture treated plasticware.
# HEK-293 cells were harvested using enzyme-free cell dissociation buffer. The cells were resuspended in DMEM/F-12 media supplemented with 10% FCS and 1.5 ug/ml and counted. Tranductions were performed by direct addition of BacMam baculovirus containing insect cell media to cells. The cells were simultaneously transduced with BacMam baculovirus expressing HIV-1 tat, HIV-1 rev and HIV-1 gp160 (from the HXB2 HIV strain). Routinely an MOI of 10 of each virus was added to the media containing the cells. 2 mM butyric acid was also added to the cells at this stage to increase protein expression in transduced cells. The cells were subsequently mixed and seeded into a flask at 30 million cells per T225. The cells were incubated at 37° C., 5% CO2, 95% humidity for 24 h to allow for protein expression.
# HEK and HOS cells were harvested in DMEM/F-12 media containing 2% FCS and DMEM media containing 2% FCS, respectively, with no selection agents added. Compounds were plated as 1 ul spots in 100% DMSO on a 96-well CulturPlate plates. HOS cells (50 ul) were added first to the wells, followed immediately by the HEK cells (50 ul). The final concentration of each cell type was 20,000 cells per well. Following these additions, the cells were returned to a tissue culture incubator (37° C.; 5% CO2/95% air) for an additional 24 h.
# Following the 24 h incubation, total cellular luciferase activity was measured using the LucLite Plus assay kit (Packard, Meridien, Conn.). […]
smiles,measurement,setting,value
"c1cnc2c(c1)CC[C@H]1CCCN(Cc3nc4ccccc4[nH]3)[C@H]21 (racemic) [Example 6, (trans)-1-(1H-Benzimidazol-2-ylmethyl)-1,2,3,4,4a,5,6,10b-octahydro-1,10-phenanthroline]",IC50,[1],126 nM
same,IC50,[2],1120 nM
"c1cnc2c(c1)CC[C@@H]1CCCN(Cc3nc4ccccc4[nH]3)[C@H]21 (racemic) [Example 7, (cis)-1-(1H-Benzimidazol-2-ylmethyl)-1,2,3,4,4a,5,6,10b-octahydro-1,10-phenanthroline]",IC50,[1],437 nM
same,IC50,[2],3160 nM
"NCCCn1c(CN2CCC[C@@H]3CCc4cccnc4[C@H]32)nc2ccccc21 (racemic) [Example 8, (trans)-3-[2-(3,4,4a,5,6,10b-Hexahydro-1,10-phenanthrolin-1(2H)-ylmethyl)-1H-benzimidazol-1-yl]-1-propanamine]",IC50,[1],126 nM
same,IC50,[2],490 nM
"NCCCn1c(CN2CCC[C@H]3CCc4cccnc4[C@H]32)nc2ccccc21 (racemic) [Example 9, (cis)-3-[2-(3,4,4a,5,6,10b-Hexahydro-1,10-phenanthrolin-1(2H)-ylmethyl)-1H-benzimidazol-1-yl]-1-propanamine]",IC50,[1],19.5 nM
same,IC50,[2],89.1 nM
"c1cnc2c(c1)CC[C@@H]1CCCN(Cc3nc4ccccc4n3Cc3ccncc3)[C@H]21 (racemic) [Example 12, (cis)-1-{[1-(4-Pyridinylmethyl)-1H-benzimidazol-2-yl]methyl}-1,2,3,4,4a,5,6,10b-octahydro-1,10-phenanthroline]",IC50,[1],1050 nM
same,IC50,[2],7940 nM
"CN1CCCC(Cn2c(CN3CCC[C@H]4CCc5cccnc5[C@H]43)nc3ccccc32)C1 (mixture of isomers) [Example 13, (cis)-1-({1-[(1-Methyl-3-piperidinyl)methyl]-1H-benzimidazol-2-yl}methyl)-1,2,3,4,4a,5,6,10b-octahydro-1,10-phenanthroline]",IC50,[1],7.59 nM
same,IC50,[2],31.6 nM
"CN1CCN(c2cccc3nc(CN4CCC[C@@H]5CCc6cccnc6[C@H]54)cn23)CC1 (racemic) [Example 15A, (trans)-1-{[5-(4-Methyl-1-piperazinyl)imidazo[1,2-a]pyridin-2-yl]methyl}-1,2,3,4,4a,5,6,10b-octahydro-1,10-phenanthroline]",IC50,[1],40.7 nM
same,IC50,[2],77.6 nM
"CN1CCN(c2cccc3nc(CN4CCC[C@H]5CCc6cccnc6[C@H]54)cn23)CC1 (racemic) [Example 15B, (cis)-1-{[5-(4-Methyl-1-piperazinyl)imidazo[1,2-a]pyridin-2-yl]methyl}-1,2,3,4,4a,5,6,10b-octahydro-1,10-phenanthroline]",IC50,[1],3.39 nM
same,IC50,[2],5.5 nM
"CN1CCN(c2cccc3[nH]c(CN4CCC[C@@H]5CCc6cccnc6[C@H]54)nc23)CC1 (racemic) [Example 32, (trans)-1-{[4-(4-Methyl-1-piperazinyl)-1H-benzimidazol-2-yl]methyl}-1,2,3,4,4a,5,6,10b-octahydro-1,10-phenanthroline trifluoroacetate]",IC50,[1],479 nM
same,IC50,[2],200 nM
"CN1CCN(c2cccc3nc(CN4CCC[C@H]5CCc6cccnc6[C@H]54)[nH]c23)CC1 (racemic) [Example 33, (cis)-1-{[4-(4-Methyl-1-piperazinyl)-1H-benzimidazol-2-yl]methyl}-1,2,3,4,4a,5,6,10b-octahydro-1,10-phenanthroline]",IC50,[1],2.4 nM
same,IC50,[2],0.398 nM
"CN(C)CCCn1c(CN2CCC[C@H]3CCc4cccnc4[C@@H]32)nc2ccccc21 (stereo in doubt) [Example 10A, (3-{2-[(4aR,10bR)-3,4,4a,5,6,10b-Hexahydro-1,10-phenanthrolin-1(2H)-ylmethyl]-1H-benzimidazol-1-yl}propyl)dimethylamine]",IC50,[1],182 nM
same,IC50,[2],417 nM
"CN(C)CCCn1c(CN2CCC[C@@H]3CCc4cccnc4[C@H]32)nc2ccccc21 (stereo in doubt) [Example 10B, (3-{2-[(4aS,10bS)-3,4,4a,5,6,10b-Hexahydro-1,10-phenanthrolin-1(2H)-ylmethyl]-1H-benzimidazol-1-yl}propyl)dimethylamine]",IC50,[1],93.3 nM
same,IC50,[2],200 nM
"CN(C)CCCn1c(CN2CCC[C@@H]3CCc4cccnc4[C@@H]32)nc2ccccc21 [Example 11A, (3-{2-[(4aS,10bR)-3,4,4a,5,6,10b-Hexahydro-1,10-phenanthrolin-1(2H)-ylmethyl]-1H-benzimidazol-1-yl}propyl)dimethylamine]",IC50,[1],851 nM
same,IC50,[2],1260 nM
"CN(C)CCCn1c(CN2CCC[C@H]3CCc4cccnc4[C@H]32)nc2ccccc21 [Example 11B, (3-{2-[(4aR,10bS)-3,4,4a,5,6,10b-Hexahydro-1,10-phenanthrolin-1(2H)-ylmethyl]-1H-benzimidazol-1-yl}propyl)dimethylamine]",IC50,[1],10.5 nM
same,IC50,[2],25.1 nM
"CN1CCN(c2cccc3nc(CN4CCC[C@@H]5CCc6cccnc6[C@@H]54)cn23)CC1 [Example 22, (4aS,10bR)-1-{[5-(4-Methyl-1-piperazinyl)imidazo[1,2-a]pyridin-2-yl]methyl}-1,2,3,4,4a,5,6,10b-octahydro-1,10-phenanthroline]",IC50,[1],31.6 nM
same,IC50,[2],158 nM
"CN1CCN(c2cccc3nc(CN4CCC[C@H]5CCc6cccnc6[C@H]54)cn23)CC1 [Example 27, (4aR,10bS)-1-{[5-(4-Methyl-1-piperazinyl)imidazo[1,2-a]pyridin-2-yl]methyl}-1,2,3,4,4a,5,6,10b-octahydro-1,10-phenanthroline]",IC50,[1],1.26 nM
same,IC50,[2],1.26 nM
